Laboratory results: patent US20030190377A1, “Novel use of the extract of processed Panax genus plant and saponin compound isolated therefrom” (Ginseng Science Inc., priority 2002, published 2003)
≈ marks a conversion by molar mass, not a printed value. Like-named read-outs stand apart in the source and are kept apart here.

Assays:
[1] = test system: Helicobacter pylori; test: Inhibitory effect on proliferation of Helicobacter pylori (MIC, Brucella agar); assay type: cell-based
[2] = target: H+/K+-ATPase (Rattus norvegicus, UniProt P09626); test: H+/K+-ATPase activity inhibition test; conditions: for IC50 for H+/K+-ATPase: stomach enzyme, pre-incubated 37° C. 30 minutes, pH 7.4
[3] = H. pylori strain ATCC 43504, 37° C., 3 days
[4] = H. pylori strain Clinical 4, 37° C., 3 days
[5] = H. pylori strain Clinical 82516, 37° C., 3 days
[6] = H. pylori strain Clinical 82548, 37° C., 3 days
[7] = H. pylori strain NCTC 11637, 37° C., 3 days
[8] = H. pylori strain NCTC 11638, 37° C., 3 days

Chain of H+/K+-ATPase (P09626 whole entry): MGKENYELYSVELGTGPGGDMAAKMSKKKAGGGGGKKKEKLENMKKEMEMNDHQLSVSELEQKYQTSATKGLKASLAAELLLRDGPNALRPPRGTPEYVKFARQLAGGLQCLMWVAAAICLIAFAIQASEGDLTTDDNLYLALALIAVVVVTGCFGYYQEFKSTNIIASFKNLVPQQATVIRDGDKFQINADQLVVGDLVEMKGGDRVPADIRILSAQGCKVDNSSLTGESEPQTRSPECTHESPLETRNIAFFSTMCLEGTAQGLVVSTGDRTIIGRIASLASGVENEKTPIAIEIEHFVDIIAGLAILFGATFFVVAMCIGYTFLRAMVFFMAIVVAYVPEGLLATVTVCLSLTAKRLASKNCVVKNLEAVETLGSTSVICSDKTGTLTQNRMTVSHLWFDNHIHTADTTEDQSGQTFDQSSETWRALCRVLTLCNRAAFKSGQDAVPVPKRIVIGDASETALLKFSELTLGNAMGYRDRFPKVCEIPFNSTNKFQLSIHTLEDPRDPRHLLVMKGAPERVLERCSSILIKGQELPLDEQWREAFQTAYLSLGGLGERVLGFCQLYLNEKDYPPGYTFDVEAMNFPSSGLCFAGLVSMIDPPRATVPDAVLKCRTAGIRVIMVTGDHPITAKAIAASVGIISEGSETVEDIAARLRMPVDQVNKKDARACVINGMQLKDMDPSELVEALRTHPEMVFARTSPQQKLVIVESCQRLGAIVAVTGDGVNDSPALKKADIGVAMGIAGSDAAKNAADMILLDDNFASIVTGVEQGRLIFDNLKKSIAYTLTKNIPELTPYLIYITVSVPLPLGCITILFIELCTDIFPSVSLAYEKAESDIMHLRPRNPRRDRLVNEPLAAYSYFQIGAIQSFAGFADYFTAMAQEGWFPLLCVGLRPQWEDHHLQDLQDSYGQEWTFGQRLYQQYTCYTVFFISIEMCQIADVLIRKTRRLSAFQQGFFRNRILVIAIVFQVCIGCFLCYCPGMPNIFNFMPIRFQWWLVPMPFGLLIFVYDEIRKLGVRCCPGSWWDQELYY
Chain of H+/K+-ATPase (P18598 whole entry partner): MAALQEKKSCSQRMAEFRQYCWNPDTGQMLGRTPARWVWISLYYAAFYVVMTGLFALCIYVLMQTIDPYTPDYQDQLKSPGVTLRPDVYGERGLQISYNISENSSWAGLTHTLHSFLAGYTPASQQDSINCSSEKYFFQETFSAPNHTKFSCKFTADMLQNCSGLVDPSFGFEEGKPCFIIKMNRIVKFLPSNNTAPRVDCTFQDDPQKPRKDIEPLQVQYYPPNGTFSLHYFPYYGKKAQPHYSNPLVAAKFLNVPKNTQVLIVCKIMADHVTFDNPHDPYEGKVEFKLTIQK

SMILES | MIC ATCC 43504 [1, 3] | MIC Clinical 4 [1, 4] | MIC Clinical 82516 [1, 5] | MIC Clinical 82548 [1, 6] | MIC NCTC 11637 [1, 7] | MIC NCTC 11638 [1, 8] | IC50 for H+/K+-ATPase [2] | other results
CC(C)=CCC[C@@](C)(O)[C@H]1CC[C@]2(C)[C@@H]1[C@H](O)C[C@@H]1[C@@]3(C)CC[C@H](O)C(C)(C)[C@@H]3CC[C@]12C [20(R)-protopanaxadiol] | 50 µg/mL (≈ 109 µM) | 50 µg/mL (≈ 109 µM) | 50 µg/mL (≈ 109 µM) | 50 µg/mL (≈ 109 µM) | 50 µg/mL (≈ 109 µM) | 50 µg/mL (≈ 109 µM) | – | –
CC(C)=CCC[C@](C)(O[C@@H]1O[C@H](CO[C@@H]2O[C@@H](CO)[C@H](O)[C@H]2O)[C@@H](O)[C@H](O)[C@H]1O)[C@H]1CC[C@]2(C)[C@@H]1[C@H](O)C[C@@H]1[C@@]3(C)CC[C@H](O[C@@H]4O[C@H](CO)[C@@H](O)[C@H](O)[C@H]4O[C@@H]4O[C@H](CO)[C@@H](O)[C@H](O)[C@H]4O)C(C)(C)[C@@H]3CC[C@]12C [Ginsenoside Rc] | – | – | – | – | – | – | – | MIC ([1]; Helicobacter pylori, 72 h, H. pylori strain Clinical 4, 37° C., 3 days, read-out: MIC Clinical 4): > 100 µg/mL; MIC ([1]; Helicobacter pylori, 72 h, H. pylori strain Clinical 82516, 37° C., 3 days, read-out: MIC Clinical 82516): > 100 µg/mL; MIC ([1]; Helicobacter pylori, 72 h, H. pylori strain Clinical 82548, 37° C., 3 days, read-out: MIC Clinical 82548): > 100 µg/mL; MIC ([1]; Helicobacter pylori, ATCC43504, 72 h, H. pylori strain ATCC 43504, 37° C., 3 days, read-out: MIC ATCC 43504): > 100 µg/mL; MIC ([1]; Helicobacter pylori, NCTC11637, 72 h, H. pylori strain NCTC 11637, 37° C., 3 days, read-out: MIC NCTC 11637): > 100 µg/mL; MIC ([1]; Helicobacter pylori, NCTC11638, 72 h, H. pylori strain NCTC 11638, 37° C., 3 days, read-out: MIC NCTC 11638): > 100 µg/mL; IC50 [2]: > 927 µM
CC(C)=CCC[C@](C)(O)[C@H]1CC[C@]2(C)[C@@H]1[C@H](O)C[C@@H]1[C@@]3(C)CC[C@H](O[C@@H]4O[C@H](CO)[C@@H](O)[C@H](O)[C@H]4O)C(C)(C)[C@@H]3CC[C@]12C [20(S)-ginsenoside Rh2] | 100 µg/mL (≈ 161 µM) | 100 µg/mL (≈ 161 µM) | 100 µg/mL (≈ 161 µM) | 100 µg/mL (≈ 161 µM) | 100 µg/mL (≈ 161 µM) | 100 µg/mL (≈ 161 µM) | 500 µg/mL | –
CC(C)=CCC[C@](C)(O)[C@H]1CC[C@]2(C)[C@@H]1[C@H](O)C[C@@H]1[C@@]3(C)CC[C@H](O[C@@H]4O[C@H](CO)[C@@H](O)[C@H](O)[C@H]4O[C@@H]4O[C@H](CO)[C@@H](O)[C@H](O)[C@H]4O)C(C)(C)[C@@H]3CC[C@]12C [20(S)-ginsenoside Rg3] | 200 µg/mL (≈ 255 µM) | 200 µg/mL (≈ 255 µM) | 200 µg/mL (≈ 255 µM) | 200 µg/mL (≈ 255 µM) | 200 µg/mL (≈ 255 µM) | 200 µg/mL (≈ 255 µM) | 600 µg/mL | –
CC(C)=CCC[C@@](C)(O)[C@H]1CC[C@]2(C)[C@@H]1[C@H](O)C[C@@H]1[C@@]3(C)CC[C@H](O[C@@H]4O[C@H](CO)[C@@H](O)[C@H](O)[C@H]4O)C(C)(C)[C@@H]3CC[C@]12C [20(R)-ginsenoside Rh2] | 100 µg/mL (≈ 161 µM) | 100 µg/mL (≈ 161 µM) | 100 µg/mL (≈ 161 µM) | 100 µg/mL (≈ 161 µM) | 100 µg/mL (≈ 161 µM) | 100 µg/mL (≈ 161 µM) | 500 µg/mL | –
CC(C)=CCC[C@](C)(O[C@@H]1O[C@H](CO)[C@@H](O)[C@H](O)[C@H]1O)[C@H]1CC[C@]2(C)[C@@H]1[C@H](O)C[C@@H]1[C@@]3(C)CC[C@H](O)C(C)(C)[C@@H]3CC[C@]12C [Compound K, reference compound] | >100 µg/mL | >100 µg/mL | >100 µg/mL | >100 µg/mL | >100 µg/mL | >100 µg/mL | >1000 µg/mL | –
CC1(C)CCC[C@](C)([C@H]2CC[C@]3(C)[C@@H]2[C@H](O)C[C@@H]2[C@@]4(C)CC[C@H](O)C(C)(C)[C@@H]4[C@@H](O)C[C@]23C)O1 [panaxatriol] | – | – | – | – | – | – | – | MIC ([1]; Helicobacter pylori, strain not specified, read-out: MIC): 50 µg/mL (≈ 105 µM)
COc1ccc2[nH]c([S+]([O-])Cc3ncc(C)c(OC)c3C)nc2c1 (centres unmarked) [Omeprazole, reference compound] | – | – | – | – | – | – | – | IC50 [2]: 57.9 µM
CC(C)=CCC[C@](C)(O[C@@H]1O[C@H](CO[C@@H]2OC[C@H](O)[C@H](O)[C@H]2O)[C@@H](O)[C@H](O)[C@H]1O)[C@H]1CC[C@]2(C)[C@@H]1[C@H](O)C[C@@H]1[C@@]3(C)CC[C@H](O[C@@H]4O[C@H](CO)[C@@H](O)[C@H](O)[C@H]4O[C@@H]4O[C@H](CO)[C@@H](O)[C@H](O)[C@H]4O)C(C)(C)[C@@H]3CC[C@]12C [Ginsenoside Rb2, reference compound] | >100 µg/mL | >100 µg/mL | >100 µg/mL | >100 µg/mL | >100 µg/mL | >100 µg/mL | >1000 µg/mL | –
CC(C)=CCC[C@](C)(O)[C@H]1CC[C@]2(C)[C@@H]1[C@H](O)C[C@@H]1[C@@]3(C)CC[C@H](O)C(C)(C)[C@@H]3[C@@H](O)C[C@]12C [Protopanaxatriol] | 50 µg/mL (≈ 105 µM) | 50 µg/mL (≈ 105 µM) | 50 µg/mL (≈ 105 µM) | 50 µg/mL (≈ 105 µM) | 50 µg/mL (≈ 105 µM) | 50 µg/mL (≈ 105 µM) | – | –
CC(C)=CCC[C@](C)(O[C@@H]1O[C@H](CO[C@@H]2O[C@H](CO)[C@@H](O)[C@H](O)[C@H]2O)[C@@H](O)[C@H](O)[C@H]1O)[C@H]1CC[C@]2(C)[C@@H]1[C@H](O)C[C@@H]1[C@@]3(C)CC[C@H](O[C@@H]4O[C@H](CO)[C@@H](O)[C@H](O)[C@H]4O[C@@H]4O[C@H](CO)[C@@H](O)[C@H](O)[C@H]4O)C(C)(C)[C@@H]3CC[C@]12C [Ginsenoside Rb1] | >100 µg/mL | >100 µg/mL | >100 µg/mL | >100 µg/mL | >100 µg/mL | >100 µg/mL | >1000 µg/mL | –
CC(C)=CCC[C@@](C)(O)[C@H]1CC[C@]2(C)[C@@H]1[C@H](O)C[C@@H]1[C@@]3(C)CC[C@H](O)C(C)(C)[C@@H]3CC[C@]12C [protopanaxadiol] | – | – | – | – | – | – | – | MIC ([1]; strain not specified): 50 µg/mL (≈ 109 µM)
CC(C)=CCC[C@](C)(O)[C@H]1CC[C@]2(C)[C@@H]1[C@H](O)C[C@@H]1[C@@]3(C)CC[C@H](O)C(C)(C)[C@@H]3CC[C@]12C [20(S)-protopanaxadiol] | 50 µg/mL (≈ 109 µM) | 50 µg/mL (≈ 109 µM) | 50 µg/mL (≈ 109 µM) | 50 µg/mL (≈ 109 µM) | 50 µg/mL (≈ 109 µM) | 50 µg/mL (≈ 109 µM) | >1000 µg/mL | inhibiting activity of proliferation of Helicobacter strain ([1]; result in words): potent inhibiting activity
CC(C)=CCC[C@](C)(O)[C@H]1CC[C@]2(C)[C@@H]1[C@H](O)C[C@@H]1[C@@]3(C)CC[C@H](O)C(C)(C)[C@@H]3[C@@H](O[C@@H]3O[C@H](CO)[C@@H](O)[C@H](O)[C@H]3O)C[C@]12C [Ginsenoside Rh1] | >100 µg/mL | >100 µg/mL | >100 µg/mL | >100 µg/mL | >100 µg/mL | >100 µg/mL | >1000 µg/mL | –
CC(C)=CCC[C@](C)(O)[C@H]1CC[C@]2(C)[C@@H]1[C@H](O)C[C@@H]1[C@@]3(C)CC[C@H](O[C@@H]4O[C@H](CO)[C@@H](O)[C@H](O)[C@H]4O[C@@H]4O[C@H](CO)[C@@H](O)[C@H](O)[C@H]4O)C(C)(C)[C@@H]3CC[C@]12C [20(R)-ginsenoside Rg3] | 200 µg/mL (≈ 255 µM) | 200 µg/mL (≈ 255 µM) | 200 µg/mL (≈ 255 µM) | 200 µg/mL (≈ 255 µM) | 200 µg/mL (≈ 255 µM) | 200 µg/mL (≈ 255 µM) | 700 µg/mL | –
